Source: the CheMixHub ionic liquid set

Assay: xn = mol fraction of the nth substance listed

CC(=O)[O-].Cn1cc[n+](CCO)c1 + O
100 kPa
Settings | viscosity [mPa·s]
293.15 K, x1 = 0.9003 | 93.9
298.15 K, x1 = 0.8317 | 41.2
298.15 K, x1 = 0.8712 | 56.8
303.15 K, x1 = 0.8317 | 32
303.15 K, x1 = 0.8712 | 43.6
308.15 K, x1 = 0.8317 | 25.4
308.15 K, x1 = 0.8818 | 36.7
313.15 K, x1 = 0.8632 | 25.8
313.15 K, x1 = 0.8712 | 26.6
313.15 K, x1 = 0.8818 | 29
323.15 K, x1 = 0.8818 | 19.3
328.15 K, x1 = 0.8712 | 14.72
333.15 K, x1 = 0.8818 | 13.46
333.15 K, x1 = 0.9003 | 14.78

CCCCCCCCCn1cc[n+](C)c1.O=S(=O)([N-]S(=O)(=O)C(F)(F)F)C(F)(F)F + O
100 kPa, x2 = 0.1736
Settings | viscosity [mPa·s]
298.15 K | 72.66
308.15 K | 46.59
318.15 K | 31.72
323.15 K | 26.65
358.15 K | 10.15
363.15 K | 9.09

CCCCCC[n+]1ccn(C)c1.O=S(=O)([N-]S(=O)(=O)C(F)(F)C(F)(F)F)C(F)(F)C(F)(F)F + O
101 kPa, x2 = 0.187
Settings | electrical conductivity [S/m] | viscosity [mPa·s]
293.15 K | – | 122
295.15 K | 0.15 | –

CCCCC[n+]1ccn(C)c1.C[C@H](N)C(=O)[O-] + O
viscosity [mPa·s], 100.3 kPa
Settings | 288.15 K | 293.15 K | 298.15 K | 303.15 K | 308.15 K | 313.15 K | 318.15 K | 323.15 K | 328.15 K
x1 = 0.0003008 | 1.156 | 1.015 | 0.9 | 0.81 | 0.725 | 0.661 | 0.604 | 0.554 | 0.511
x1 = 0.0003999 | 1.162 | 1.022 | 0.907 | 0.813 | 0.732 | 0.664 | 0.606 | 0.556 | 0.513
x1 = 0.0005025 | 1.167 | 1.027 | 0.911 | 0.817 | 0.735 | 0.666 | 0.608 | 0.559 | 0.515
x1 = 0.001012 | 1.203 | 1.057 | 0.937 | 0.838 | 0.755 | 0.684 | 0.626 | 0.573 | 0.529
x1 = 0.00302 | 1.361 | 1.197 | 1.057 | 0.939 | 0.841 | 0.759 | 0.688 | 0.629 | –
x1 = 0.005081 | 1.512 | 1.325 | 1.163 | 1.027 | 0.916 | 0.827 | 0.749 | 0.685 | –
x1 = 0.006922 | 1.657 | 1.445 | 1.272 | 1.118 | 0.997 | 0.893 | 0.805 | 0.736 | –
x1 = 0.009062 | 1.82 | 1.574 | 1.367 | 1.208 | 1.07 | 0.958 | 0.867 | 0.781 | –
x1 = 0.01107 | 1.956 | 1.696 | 1.476 | 1.3 | 1.146 | 1.026 | 0.928 | 0.831 | –
x1 = 0.01292 | 2.098 | 1.817 | 1.578 | 1.378 | 1.223 | 1.087 | 0.985 | 0.887 | –
x1 = 0.0148 | 2.243 | 1.938 | 1.674 | 1.467 | 1.291 | 1.155 | 1.035 | 0.931 | –
x1 = 0.01797 | 2.456 | 2.105 | 1.823 | 1.596 | 1.392 | 1.252 | 1.114 | 0.999 | –

CCCC[n+]1ccccc1.F[B-](F)(F)F + O
Settings | electrical conductivity [S/m] | viscosity [mPa·s]
283.15 K, 101.3 kPa, x2 = 0.263 | – | 84
283.15 K, 101.3 kPa, x2 = 0.637 | – | 15.85
283.15 K, 101.3 kPa, x2 = 0.724 | – | 10.78
288.15 K, 101.3 kPa, x2 = 0.11 | – | 153.8
288.15 K, 101.3 kPa, x2 = 0.391 | – | 35.82
288.15 K, 101.3 kPa, x2 = 0.637 | – | 13.01
298.15 K, 101 kPa, x1 = 0.000191 | 0.096 | –
298.15 K, 101 kPa, x1 = 0.0004053 | 0.191 | –
298.15 K, 101 kPa, x1 = 0.0005259 | 0.247 | –
298.15 K, 101 kPa, x1 = 0.0007203 | 0.33 | –
298.15 K, 101 kPa, x1 = 0.0008354 | 0.365 | –
298.15 K, 101 kPa, x1 = 0.0009829 | 0.44 | –
298.15 K, 101 kPa, x1 = 0.001125 | 0.486 | –
298.15 K, 101 kPa, x1 = 0.001254 | 0.542 | –
298.15 K, 101 kPa, x1 = 0.001434 | 0.6 | –
298.15 K, 101 kPa, x1 = 0.001585 | 0.659 | –
298.15 K, 101 kPa, x1 = 0.001811 | 0.743 | –
298.15 K, 101 kPa, x1 = 0.001984 | 0.819 | –
298.15 K, 101 kPa, x1 = 0.002073 | 0.846 | –
298.15 K, 101 kPa, x1 = 0.002208 | 0.889 | –
298.15 K, 101 kPa, x1 = 0.002434 | 0.962 | –
298.15 K, 101 kPa, x1 = 0.002597 | 1.02 | –
298.15 K, 101 kPa, x1 = 0.002828 | 1.09 | –
298.15 K, 101 kPa, x1 = 0.002875 | 1.11 | –
298.15 K, 101 kPa, x1 = 0.003074 | 1.17 | –
298.15 K, 101 kPa, x1 = 0.003174 | 1.2 | –
298.15 K, 101.3 kPa, x2 = 0.724 | – | 6.55
303.15 K, 101.3 kPa, x2 = 0.11 | – | 67.1
303.15 K, 101.3 kPa, x2 = 0.549 | – | 11.1
313.15 K, 101.3 kPa, x2 = 0.549 | – | 8.32
313.15 K, 101.3 kPa, x2 = 0.724 | – | 4.34
328.15 K, 101.3 kPa, x2 = 0.11 | – | 24.88
328.15 K, 101.3 kPa, x2 = 0.724 | – | 3.11
333.15 K, 101.3 kPa, x2 = 0.414 | – | 7.99
338.15 K, 101.3 kPa, x2 = 0.637 | – | 3.52
343.15 K, 101.3 kPa, x2 = 0.11 | – | 15.89
343.15 K, 101.3 kPa, x2 = 0.263 | – | 9.35
343.15 K, 101.3 kPa, x2 = 0.391 | – | 6.91
348.15 K, 101.3 kPa, x2 = 0 | – | 18.45
